Legend:
SU-DHL-6 [1] = experiment: Induction of apoptosis in human SU-DHL-6 cells assessed as early apoptotic cells at 1.5 uM incubated for 48 hrs in presence of ibrutinib by annexin V-FITC and PI staining based flow cytometry analysis (reference value: 8.81 %); type: functional
[2] = Clearance in Sprague-Dawley rat at 2 mg/kg, iv measured upto 24 hrs by LC-MS/MS analysis; type: ADME, organism-based; details: in vivo
[3] = Tmax in Sprague-Dawley rat at 2 mg/kg, iv measured upto 24 hrs by LC-MS/MS analysis; type: ADME, organism-based; details: in vivo
SUD4 = experiment: Antiproliferative activity against human SU-DHL-4 cells assessed as cell growth inhibition measured after 72 hrs by MTT assay; type: functional, cell-based; details: SU-DHL-4, 72 h
Homo sapiens = species on record: Homo sapiens; experiment: Selectivity ratio of IC50 for N-terminal His6-tagged recombinant full length human PI3Kbeta expressed in baculovirus infected Sf21 insect cells to IC50 for N-terminal His6-tagged recombinant full length human PI3Kgamma expressed in baculovirus infected Sf21 insect cells
[4] = Cmax in Sprague-Dawley rat at 10 mg/kg, po measured upto 24 hrs by LC-MS/MS analysis; type: ADME, organism-based; parameters: dose 10 mg/kg, time < 24 hrs, route po; details: in vivo
[5] = molecular target: T1, Phosphatidylinositol 4,5-bisphosphate 3-kinase catalytic subunit delta isoform (Homo sapiens, UniProt O00329); experiment: Inhibition of N-terminal His6-tagged recombinant full length human PI3Kdelta expressed in baculovirus infected Sf21 insect cells incubated for 30 mins by HTRF assay
T1 sequence (O00329 whole entry): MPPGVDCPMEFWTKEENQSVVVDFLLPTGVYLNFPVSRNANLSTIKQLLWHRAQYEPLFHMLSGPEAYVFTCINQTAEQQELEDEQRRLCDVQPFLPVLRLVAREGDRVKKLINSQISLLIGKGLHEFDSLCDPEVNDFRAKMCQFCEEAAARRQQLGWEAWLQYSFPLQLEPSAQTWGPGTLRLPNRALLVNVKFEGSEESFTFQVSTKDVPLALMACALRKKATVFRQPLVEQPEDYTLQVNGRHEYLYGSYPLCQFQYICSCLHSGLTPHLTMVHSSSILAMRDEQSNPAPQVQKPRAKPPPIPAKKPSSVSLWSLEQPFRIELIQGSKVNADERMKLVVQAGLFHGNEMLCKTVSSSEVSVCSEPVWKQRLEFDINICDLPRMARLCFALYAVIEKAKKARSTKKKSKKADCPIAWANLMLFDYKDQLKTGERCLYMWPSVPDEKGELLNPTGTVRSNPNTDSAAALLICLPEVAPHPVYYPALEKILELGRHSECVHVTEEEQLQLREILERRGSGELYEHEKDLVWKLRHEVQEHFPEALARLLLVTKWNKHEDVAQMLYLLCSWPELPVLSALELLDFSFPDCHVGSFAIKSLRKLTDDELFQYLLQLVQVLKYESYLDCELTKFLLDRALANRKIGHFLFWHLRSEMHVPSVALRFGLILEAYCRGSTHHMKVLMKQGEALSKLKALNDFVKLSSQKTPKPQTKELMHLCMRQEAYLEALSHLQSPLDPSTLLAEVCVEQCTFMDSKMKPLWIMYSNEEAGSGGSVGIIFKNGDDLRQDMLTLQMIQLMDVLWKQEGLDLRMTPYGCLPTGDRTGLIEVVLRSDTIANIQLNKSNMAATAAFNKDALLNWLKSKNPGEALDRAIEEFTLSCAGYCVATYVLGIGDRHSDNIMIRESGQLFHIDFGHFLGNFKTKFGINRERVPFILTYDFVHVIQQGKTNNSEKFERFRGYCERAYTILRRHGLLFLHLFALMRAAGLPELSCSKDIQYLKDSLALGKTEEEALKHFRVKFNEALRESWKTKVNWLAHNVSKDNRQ

SU-DHL-6 [6] = experiment: Induction of apoptosis in human SU-DHL-6 cells assessed as late apoptotic cells at 1.5 uM incubated for 48 hrs in presence of ibrutinib by annexin V-FITC and PI staining based flow cytometry analysis (reference value: 3.88 %); type: functional

Work on `C[C@H]1CC[C@@H](c2nc3cccc(Cl)c3c(=O)n2-c2cccnc2)N1c1nc(N)nc(N)c1C#N` yielded an Activity (SU-DHL-6 [1]) of 34.5%, a clearance [2] of 30.5 mL/min/kg and a Tmax [3] of 1.2 h. The IC50 (SUD4) was 30 nM, the Ratio IC50 (Homo sapiens) was 84 and the Cmax [4] was 785 ng/mL. For the same compound, the IC50 [5] was 1000 nM and the Activity (SU-DHL-6 [6]) was 18.1%.
